Blank lines part the entries; values can stand above or below the compound they belong to.
Experiments:
[1] = molecular target: PARP1 (Homo sapiens, UniProt P09874); assay: PARP1 enzyme inhibitory assay; type: biochemical; details: mean of three experiments
[2] = test system: MDA-MB-436 cells; assay: In vitro antiproliferative assay (CCK-8); type: cell-based; details: Homo sapiens; MDA-MB-436, BRCA-mutated; CCK-8, 72 h; mean of three
Description: (§1) The proliferation of cancer cells was tested by CCK-8 assay. Briefly, cells were seeded in 96-well plates at approximately 5 × 10^3 cells per well. The cells were treated with test compounds after 24 h of incubation. CCK-8 reagent ([…]) was added to each well after 72 h of incubation, and the cells were then incubated at 37°C for 4 h. The light absorbance at 450 nm was measured using an Opsys microplate reader (Dynex Technologies, Chantilly, VA, United States). Results are illustrated as percentage viability normalized to DMSO-treated control cells.

[3] = test system: Hela cells; assay: In vitro antiproliferative assay (CCK-8); type: cell-based; details: Homo sapiens, without BRCA mutations, CCK-8, 72 h, mean of three
Description: as §1

[4] = test system: 8226 cells; assay: In vitro antiproliferative assay (CCK-8); type: cell-based; details: 8226, without BRCA mutations; CCK-8, 72 h; mean of three
Description: as §1

[5] = test system: K562 cells; assay: In vitro antiproliferative assay (CCK-8); type: cell-based; details: Homo sapiens; K562, without BRCA mutations; CCK-8, 72 h; mean of three
Description: as §1

[6] = test system: MDA-MB-231 cells; assay: In vitro antiproliferative assay (CCK-8); type: cell-based; details: Homo sapiens; MDA-MB-231, without BRCA mutations; CCK-8, 72 h; mean of three
Description: as §1

[7] = test system: U251 cells; assay: In vitro antiproliferative assay (CCK-8); type: cell-based; details: Homo sapiens, U-251; U251, without BRCA mutations; CCK-8, 72 h; mean of three
Description: as §1

[8] = test system: U87 cells; assay: In vitro antiproliferative assay (CCK-8); type: cell-based; details: Homo sapiens, U-87 MG; U87, without BRCA mutations; CCK-8, 72 h; mean of three
Description: as §1

[9] = test system: Capan-1 cells; assay: In vitro antiproliferative assay (CCK-8); type: cell-based; details: Homo sapiens; Capan-1, BRCA-mutated; CCK-8, 72 h; mean of three
Description: as §1

[10] = test system: SW620 cells; assay: In vitro antiproliferative assay (CCK-8); type: cell-based; details: Homo sapiens, SW-620; SW620, without BRCA mutations; CCK-8, 72 h; mean of three
Description: as §1

[11] = test system: CH151 cells; assay: In vitro antiproliferative assay (CCK-8); type: cell-based; details: CH151, without BRCA mutations; CCK-8, 72 h; mean of three
Description: as §1

[12] = test system: SKOV3 cells; assay: In vitro antiproliferative assay (CCK-8); type: cell-based; details: Homo sapiens, SK-OV-3; SKOV3, without BRCA mutations; CCK-8, 72 h; mean of three
Description: as §1

[13] = test system: B16 cells; assay: In vitro antiproliferative assay (CCK-8); type: cell-based; details: Mus musculus; B16, without BRCA mutations; CCK-8, 72 h; mean of three
Description: as §1

[14] = test system: A549 cells; assay: In vitro antiproliferative assay (CCK-8); type: cell-based; details: Homo sapiens; A549, without BRCA mutations; CCK-8, 72 h; mean of three
Description: as §1

[15] = test system: HCC1937 cells; assay: In vitro antiproliferative assay (CCK-8); type: cell-based; details: Homo sapiens; HCC1937, BRCA-mutated; CCK-8, 72 h; mean of three
Description: as §1

[16] = test system: Raji cells; assay: In vitro antiproliferative assay (CCK-8); type: cell-based; details: Homo sapiens, without BRCA mutations, CCK-8, 72 h, mean of three
Description: as §1

[17] = test system: MCF-7 cells; assay: In vitro antiproliferative assay (CCK-8); type: cell-based; details: Homo sapiens, MCF7; MCF-7, without BRCA mutations; CCK-8, 72 h; mean of three
Description: as §1

PARP1, sequence (P09874 whole entry): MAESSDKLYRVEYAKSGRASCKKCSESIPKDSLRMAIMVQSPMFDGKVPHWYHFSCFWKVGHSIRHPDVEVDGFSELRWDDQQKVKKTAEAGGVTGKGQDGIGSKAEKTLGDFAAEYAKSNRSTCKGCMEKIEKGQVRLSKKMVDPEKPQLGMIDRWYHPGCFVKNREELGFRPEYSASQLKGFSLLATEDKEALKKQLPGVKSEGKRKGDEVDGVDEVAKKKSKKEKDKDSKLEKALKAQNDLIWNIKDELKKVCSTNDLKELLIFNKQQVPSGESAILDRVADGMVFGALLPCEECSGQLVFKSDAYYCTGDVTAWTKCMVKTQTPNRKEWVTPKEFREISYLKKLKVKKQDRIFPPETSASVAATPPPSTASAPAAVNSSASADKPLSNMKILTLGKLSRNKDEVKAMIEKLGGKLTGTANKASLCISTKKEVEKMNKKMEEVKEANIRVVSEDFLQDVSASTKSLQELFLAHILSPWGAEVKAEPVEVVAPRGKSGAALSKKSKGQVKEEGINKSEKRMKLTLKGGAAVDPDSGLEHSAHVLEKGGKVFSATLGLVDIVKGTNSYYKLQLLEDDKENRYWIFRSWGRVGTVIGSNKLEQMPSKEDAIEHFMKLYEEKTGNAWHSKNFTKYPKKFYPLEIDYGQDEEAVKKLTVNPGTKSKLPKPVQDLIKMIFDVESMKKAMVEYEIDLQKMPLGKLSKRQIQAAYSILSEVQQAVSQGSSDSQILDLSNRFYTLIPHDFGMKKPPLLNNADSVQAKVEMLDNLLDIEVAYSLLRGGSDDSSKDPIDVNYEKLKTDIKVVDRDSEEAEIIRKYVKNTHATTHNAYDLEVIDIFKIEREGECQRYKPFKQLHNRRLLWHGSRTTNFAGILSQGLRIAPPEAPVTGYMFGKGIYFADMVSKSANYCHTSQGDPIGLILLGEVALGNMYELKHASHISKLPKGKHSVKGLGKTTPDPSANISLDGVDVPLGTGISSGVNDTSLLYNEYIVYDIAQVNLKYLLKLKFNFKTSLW

IC50 ([1]; Table 1, A series): 31.2 ± 2.4 nM
Compound: O=C(c1ccc(F)cc1)N1CCN(Cc2cc(Cc3n[nH]c(=O)c4ccccc34)ccc2F)CC1 [A1, 4-(4-Fluoro-3-((4-(4-fluorobenzoyl)piperazin-1-yl)methyl)benzyl)phthalazin-1(2H)-one]

IC50 ([1]; Table 1, A series): 29.4 ± 2.2 nM
Compound: O=C(c1ccccc1F)N1CCN(Cc2cc(Cc3n[nH]c(=O)c4ccccc34)ccc2F)CC1 [A2, 4-(4-Fluoro-3-((4-(2-fluorobenzoyl)piperazin-1-yl)methyl)benzyl)phthalazin-1(2H)-one]

IC50 ([1]; Table 1, A series): 17.6 ± 1.3 nM
Compound: O=C(c1cccc(F)c1)N1CCN(Cc2cc(Cc3n[nH]c(=O)c4ccccc34)ccc2F)CC1 [A3, 4-(4-Fluoro-3-((4-(3-fluorobenzoyl)piperazin-1-yl)methyl)benzyl)phthalazin-1(2H)-one]

IC50 ([1]; Table 1, A series): 42.2 ± 4.1 nM
Compound: O=C(c1ccc(C(F)(F)F)cc1)N1CCN(Cc2cc(Cc3n[nH]c(=O)c4ccccc34)ccc2F)CC1 [A4, 4-(4-Fluoro-3-((4-(4-(trifluoromethyl)benzoyl)piperazin-1-yl)methyl)benzyl)phthalazin-1(2H)-one]

IC50 ([1]; Table 1, A series): 33.2 ± 3.1 nM
Compound: O=C(c1ccccc1C(F)(F)F)N1CCN(Cc2cc(Cc3n[nH]c(=O)c4ccccc34)ccc2F)CC1 [A5, 4-(4-Fluoro-3-((4-(2-(trifluoromethyl)benzoyl)piperazin-1-yl)methyl)benzyl)phthalazin-1(2H)-one]

IC50 ([1]; Table 1, A series): > 50 nM
Compound: O=C(c1cccc(C(F)(F)F)c1)N1CCN(Cc2cc(Cc3n[nH]c(=O)c4ccccc34)ccc2F)CC1 [A6, 4-(4-Fluoro-3-((4-(3-(trifluoromethyl)benzoyl)piperazin-1-yl)methyl)benzyl)phthalazin-1(2H)-one]

IC50 ([1]; Table 1, A series): 24.6 ± 2.1 nM
Compound: O=C(c1ccccc1Cl)N1CCN(Cc2cc(Cc3n[nH]c(=O)c4ccccc34)ccc2F)CC1 [A7, 4-(3-((4-(2-Chlorobenzoyl)piperazin-1-yl)methyl)-4-fluorobenzyl)phthalazin-1(2H)-one]

IC50 ([1]; Table 1, A series): 22.5 ± 2.1 nM
Compound: O=C(c1cccc(Br)c1)N1CCN(Cc2cc(Cc3n[nH]c(=O)c4ccccc34)ccc2F)CC1 [A8, 4-(3-((4-(3-Bromobenzoyl)piperazin-1-yl)methyl)-4-fluorobenzyl)phthalazin-1(2H)-one]

IC50 ([1]; Table 1, A series): 12.6 ± 1.1 nM
Compound: Cc1ccccc1C(=O)N1CCN(Cc2cc(Cc3n[nH]c(=O)c4ccccc34)ccc2F)CC1 [A9, 4-(4-Fluoro-3-((4-(2-methylbenzoyl)piperazin-1-yl)methyl)benzyl)phthalazin-1(2H)-one]

IC50 ([1]; Table 1, A series): 21.4 ± 1.4 nM
Compound: CCc1ccc(C(=O)N2CCN(Cc3cc(Cc4n[nH]c(=O)c5ccccc45)ccc3F)CC2)cc1 [A10, 4-(3-((4-(4-Ethylbenzoyl)piperazin-1-yl)methyl)-4-fluorobenzyl)phthalazin-1(2H)-one]

IC50 ([1]; Table 1, A series): 29.4 ± 2.3 nM
Compound: COc1ccccc1C(=O)N1CCN(Cc2cc(Cc3n[nH]c(=O)c4ccccc34)ccc2F)CC1 [A11, 4-(4-Fluoro-3-((4-(2-methoxybenzoyl)piperazin-1-yl)methyl)benzyl)phthalazin-1(2H)-one]

IC50 ([1]; Table 1, A series): > 50 nM
Compound: O=C(c1ccccc1)N1CCN(Cc2cc(Cc3n[nH]c(=O)c4ccccc34)ccc2F)CC1 [A12, 4-(3-((4-Benzoylpiperazin-1-yl)methyl)-4-fluorobenzyl)phthalazin-1(2H)-one]

IC50 ([1]; Table 1, A series): > 50 nM
Compound: COc1ccc(C(=O)N2CCN(Cc3cc(Cc4n[nH]c(=O)c5ccccc45)ccc3F)CC2)cc1 [A13, 4-(4-Fluoro-3-((4-(4-methoxybenzoyl)piperazin-1-yl)methyl)benzyl)phthalazin-1(2H)-one]

IC50 ([1]; Table 1, A series): > 50 nM
Compound: NC(=O)C1CCN(Cc2cc(Cc3n[nH]c(=O)c4ccccc34)ccc2F)CC1 [A14, 1-(2-Fluoro-5-((4-oxo-3,4-dihydrophthalazin-1-yl)methyl)benzyl)piperidine-4-carboxamide]

IC50 ([1]; Table 1, A series): > 50 nM
Compound: O=c1[nH]nc(Cc2ccc(F)c(CN3CCN(Cc4ccc5c(c4)OCO5)CC3)c2)c2ccccc12 [A15, 4-(3-((4-(Benzo[d][1,3]dioxol-5-ylmethyl)piperazin-1-yl)methyl)-4-fluorobenzyl)phthalazin-1(2H)-one]

IC50 ([1]; Table 1, A series): > 50 nM
Compound: O=c1[nH]nc(Cc2ccc(F)c(CN3CCC(N4CCCCC4)CC3)c2)c2ccccc12 [A16, 4-(3-([1,4′-Bipiperidin]-1′-ylmethyl)-4-fluorobenzyl)phthalazin-1(2H)-one]

IC50 ([1]; Table 1, A series): > 50 nM
Compound: COC(=O)C1CCN(Cc2cc(Cc3n[nH]c(=O)c4ccccc34)ccc2F)CC1 [A17, Methyl1-(2-fluoro-5-((4-oxo-3,4-dihydrophthalazin-1-yl)methyl)benzyl)piperidine-4-carboxylate]

IC50 ([1]; Table 1, A series): > 50 nM
Compound: O=c1[nH]nc(Cc2ccc(F)c(CN3CCC(Cc4ccccc4)CC3)c2)c2ccccc12 [A18, 4-(3-((4-Benzylpiperidin-1-yl)methyl)-4-fluorobenzyl)phthalazin-1(2H)-one]

IC50 ([1]; Table 1, A series): 12.6 ± 0.9 nM
Compound: O=C(c1ccc2c(c1)OCO2)N1CCN(Cc2cc(Cc3n[nH]c(=O)c4ccccc34)ccc2F)CC1 [A20, 4-(3-((4-(Benzo[d][1,3]dioxole-5-carbonyl)piperazin-1-yl)methyl)-4-fluorobenzyl)phthalazin-1(2H)-one]

IC50 ([1]; Table 1, A series): 8.4 ± 0.4 nM
Compound: O=C(C1CC1)N1CCN(Cc2cc(Cc3n[nH]c(=O)c4ccccc34)ccc2F)CC1 [A21, 4-(3-((4-(Cyclopropanecarbonyl)piperazin-1-yl)methyl)-4-fluorobenzyl)phthalazin-1(2H)-one]

IC50 ([1]; Table 1, A series): 9.3 ± 0.3 nM
Compound: O=C(C1CCC(F)(F)CC1)N1CCN(Cc2cc(Cc3n[nH]c(=O)c4ccccc34)ccc2F)CC1 [A22, 4-(3-((4-(4,4-Difluorocyclohexane-1-carbonyl)piperazin-1-yl)methyl)-4-fluorobenzyl) phthalazin-1(2H)-one]

IC50 ([1]; Table 1, A series): 10.1 ± 0.6 nM
Compound: O=C(C1CCCCC1)N1CCN(Cc2cc(Cc3n[nH]c(=O)c4ccccc34)ccc2F)CC1 [A23, 4-(3-((4-(Cyclohexanecarbonyl)piperazin-1-yl)methyl)-4-fluorobenzyl)phthalazin-1(2H)-one]

IC50 ([1]; Table 2, B and C series): 2.8 ± 0.1 nM
IC50 [2]: > 1000 nM
IC50 [3]: > 100 µM
IC50 [5]: > 20 µM
IC50 [6]: > 100 µM
IC50 [7]: > 100 µM
IC50 [8]: > 100 µM
IC50 [10]: > 100 µM
IC50 [12]: > 100 µM
IC50 [13]: > 100 µM
IC50 [14]: > 100 µM
IC50 [15]: > 1000 nM
IC50 [16]: > 100 µM
IC50 [17]: > 100 µM
Compound: CCCCNNC(=O)c1cc(Cc2n[nH]c(=O)c3ccccc23)ccc1F [B3, N′-butyl-2-fluoro-5-((4-oxo-3,4-dihydrophthalazin-1-yl)methyl)benzohydrazide]
IC50 [4]: > 100 µM
IC50 [9]: > 1000 nM
IC50 [11]: > 100 µM

IC50 ([1]; Table 2, B and C series): 11.8 ± 1.3 nM
Compound: CC(C)CNNC(=O)c1cc(Cc2n[nH]c(=O)c3ccccc23)ccc1F [B4, 2-Fluoro-N′-isobutyl-5-((4-oxo-3,4-dihydrophthalazin-1-yl)methyl)benzohydrazide]

IC50 ([1]; Table 2, B and C series): 5.2 ± 0.4 nM
Compound: CCCCCNNC(=O)c1cc(Cc2n[nH]c(=O)c3ccccc23)ccc1F [B5, 2-Fluoro-5-((4-oxo-3,4-dihydrophthalazin-1-yl)methyl)-N′-pentylbenzohydrazide]

IC50 ([1]; Table 2, B and C series): 9.4 ± 0.8 nM
Compound: CCCCCCNNC(=O)c1cc(Cc2n[nH]c(=O)c3ccccc23)ccc1F [B6, 2-Fluoro-N′-hexyl-5-((4-oxo-3,4-dihydrophthalazin-1-yl)methyl)benzohydrazide]

Compound: O=C(c1ccc(N(CCCl)CCCl)cc1)N1CCN(C(=O)c2cc(Cc3n[nH]c(=O)c4ccccc34)ccc2F)CC1 [C1, 4-(3-(4-(4-(Bis(2-chloroethyl)amino)benzoyl)piperazine-1-carbonyl)-4-fluorobenzyl) phthalazin-1(2H)-one]
IC50 ([1]; Table 2, B and C series): 1.2 ± 0.11 nM
IC50 [2]: 18 ± 2 nM
IC50 [3]: > 100 µM
IC50 [4]: > 100 µM
IC50 [5]: > 20 µM
IC50 [6]: > 100 µM
IC50 [7]: > 100 µM
IC50 [8]: > 100 µM
IC50 [9]: 105 ± 10 nM
IC50 [10]: > 100 µM
IC50 [11]: > 100 µM
IC50 [12]: > 100 µM
IC50 [13]: > 100 µM
IC50 [14]: 14.1 ± 1.1 µM
IC50 [15]: 360 ± 20 nM
IC50 [16]: > 100 µM
IC50 [17]: > 100 µM
